How the values were obtained:
[1] = target: T1, porcine pancreatic lipase (PL) (Sus scrofa, UniProt P00591); assay: Pancreatic lipase inhibition, Copper soap method; format: biochemical; settings: olive oil substrate, PBS pH 7.38, triplicate
T1 construct: purchased Sigma
T1 sequence (P00591 1-450): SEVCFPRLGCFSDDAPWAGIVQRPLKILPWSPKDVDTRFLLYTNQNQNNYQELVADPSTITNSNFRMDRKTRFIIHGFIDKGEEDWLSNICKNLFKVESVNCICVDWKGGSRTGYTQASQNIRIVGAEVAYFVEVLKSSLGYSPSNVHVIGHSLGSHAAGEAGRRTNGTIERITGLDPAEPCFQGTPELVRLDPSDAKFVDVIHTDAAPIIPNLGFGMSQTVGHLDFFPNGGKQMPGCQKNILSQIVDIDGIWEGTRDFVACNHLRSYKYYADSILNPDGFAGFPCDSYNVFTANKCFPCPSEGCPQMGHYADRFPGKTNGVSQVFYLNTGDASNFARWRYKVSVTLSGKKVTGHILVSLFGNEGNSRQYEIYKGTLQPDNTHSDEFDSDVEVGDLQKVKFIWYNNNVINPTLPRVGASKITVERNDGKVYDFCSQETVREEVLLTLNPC
Experimental: Copper soap method: The lipase activity assay involved a reaction medium (10 mL) containing 1 mg of olive oil, 3 mL 0.0667 mol/L, pH = 7.38 phosphate buffer saline (PBS), and 0.1 mL (C = 1 mg/mL) of lipase in the presence of 1 mL peptides with different concentrations. The peptides solution was prepared by dissolving in the working solution and was then added to reaction mixtures just before the reaction. Control lipase activity was determined without peptides. All samples were analyzed in triplicate. (1) Inhibition%=1−(Aa−A0)−(Ab−A0)/(Aa−A0)×100% where Ab refers to the absorbance value of the normal group; A0 is referred to the absorbance value of blank; and Aa is the absorbance values of the control group.

AMPKα = assay: Western blot, AMPKα expression; format: cell-based; settings: PP1 600 μg/mL, 3T3-L1 adipocytes
Experimental: (§1) Cells were lysed in Radio Immunoprecipitation Assay (RIPA) buffer for 1 h and then centrifuged at 12,000 rpm for 25 min at 4 °C. The protein concentrations were determined by using a BCA protein assay kit. The supernatants were mixed with 4 × Sodium dodecyl sulfate (SDS) sample buffer and boiled for 10 min. The samples were run on a 4–15% SDS polyacrylamide gel and then transferred to a polyvinylidene difluoride membrane. The membrane was blocked with 5% (w/v) bovine serum albumin (BSA) for 30 min and then incubated with primary antibodies at 4 °C overnight. After washing with Tris-Buffered Saline and Tween 20 (TBST) 3 times, the membranes were washed with TBST and incubated with the secondary antibodies. Signals were detected with a scanner (Thermo Fisher Scientific, Inc.), and the fluorescence intensity was measured using Image software.

SREBP-1c = assay: Western blot, SREBP-1c expression; format: cell-based; settings: PP1 600 μg/mL, 3T3-L1 adipocytes
Experimental: as §1

PPARγ = assay: Western blot, PPARγ expression; format: cell-based; settings: PP1 600 μg/mL, 3T3-L1 adipocytes
Experimental: as §1

3T3-L1 adipocytes [2] = assay: Intracellular triacylglycerol in 3T3-L1 adipocytes; format: cell-based; settings: for decrease of intracellular triacylglycerol accumulation: 3T3-L1 cells
Experimental: (§2) First, 3T3-L1 cells were cultured in Dulbecco’s modified Eagle’s medium (DMEM) medium containing 10% (v/v) fatal bovine serum (FBS) and 1% antibiotics in a humidified atmosphere of 5% CO2 at 37 °C. For cell toxicity assessment, 3T3-L1 cells (1 × 10^5) were seeded in a 96-well plate for 24 h. After that, the cells were incubated for 6 days in DMEM containing various concentrations (0–1.0 mg/mL) of the synthetic PP1. Cell toxicity was measured by MTT according to the instructions indicated by the manufacturer. For cell differentiation, 3T3-L1 cells were seeded in 6-well plates at a density of 2 × 10^5 cells/well. Then, the medium was changed by DMEM with insulin (5 μg/mL; Sigma), 1 μM of dexamethasone (Sigma), and 0.5 mM of 3-isobutyl-1-methylxanthine. On day 3, the medium was replaced with DMEM containing insulin (5 μg/mL; Sigma) and 10% (v/v) FBS every 3 days. Various concentrations of the synthetic PP1 were attendant during the whole process of differentiation induction. Oil Red O staining of the intracellular lipids was carried out, as described previously. Moreover, intracellular triacylglycerol levels were measured by using an Assay Triglyceride Kit. Protein concentrations were determined with BCA Protein Assay.

3T3-L1 adipocytes [3] = assay: Lipid accumulation / differentiation in 3T3-L1 cells (Oil Red O); format: cell-based
Experimental: as §2

C/EBPα = assay: Western blot, C/EBPα expression; format: cell-based; settings: PP1 600 μg/mL, 3T3-L1 adipocytes
Experimental: as §1

[4] = Table 2, Alcalase hydrolysate fractions and positive drugs, mean ± SD, test concentration not given

Compound | Inhibition of Pancreatic Lipase [1, 4] [%] | AMPKα protein expression (AMPKα) | SREBP-1c protein level (SREBP-1c) | PPARγ protein level (PPARγ) | decrease of intracellular triacylglycerol accumulation (3T3-L1 adipocytes [2]; PP1 600 μg/mL) [%] | intracellular triacylglycerol level (3T3-L1 adipocytes [2]; PP1 600 μg/mL during differentiation, p < 0.05, mature adipocyte (model) 82.98 ± 11.2, pre-adipocytes 25.98 ± 1.6) [nmol/mg protein] | Inhibition of Pancreatic Lipase ([1]; synthetic peptide at 200 μg/mL) [%] | differentiation inhibition (3T3-L1 adipocytes [3]; 3T3-L1 pre-adipocytes) | number of intracellular lipid droplets (3T3-L1 adipocytes [3]; Oil Red O, PP1 present during differentiation, compared with model group) | C/EBPα protein level (C/EBPα) | decrease of intracellular triacylglycerol accumulation (3T3-L1 adipocytes [2]; simvastatin 10 μM, positive drug) [%]
CCCCCCCCCCC[C@@H](C[C@@H]1OC(=O)[C@H]1CCCCCC)OC(=O)[C@H](CC(C)C)NC=O [Orlistat] | 88.85 ± 2.42 | – | – | – | – | – | – | – | – | – | –
Leu-Leu-Val-Val-Try-Pro-Trp-Thr-Gln-Arg (LLVVYPWTQR) [PP1, synthetic decapeptide identified from A2 fraction of Alcalase hydrolysate] | – | significantly increased the expression of AMPKα | decreased the levels of C/EBPα, SREBP-1c | decreased the levels of C/EBPα, SREBP-1c, and PPARγ | 27.9 | 59.82 ± 6.78 | 47.95 | good differentiation inhibition activity | clearly decreased compared with that in the model group | decreased the levels of C/EBPα | –
CCC(C)(C)C(=O)O[C@H]1C[C@@H](C)C=C2C=C[C@H](C)[C@H](CC[C@@H]3C[C@@H](O)CC(=O)O3)[C@H]21 [simvastatin, reference compound] | 35.2 ± 1.9 | – | – | – | – | – | – | – | – | – | 24.1
